Test results: US20250195671A1, “COVALENT ANESTHETIC-POLYMER CONJUGATES FOR PROLONGED LOCAL ANESTHESIA” (priority 2017, published 2025)
Where two headings read alike, the source gives them in different places.

Tests used:
sciatic nerve [1] = conditions: rat, in vivo
[2] = system: sciatic nerve and surrounding tissues; conditions: rat, in vivo
[3] = cited from earlier work
[4] = in vivo; cited from earlier work
rat sciatic nerve = conditions: rat model; cited from earlier work
sciatic nerve [5] = system: sciatic nerve
rat = conditions: in vivo

For `N=C1NC(O)[C@H]2[C@@H]3OC4(O)OC(C(O)[C@@]2(N1)[C@@H]4O)[C@]3(O)CO` (some centres unmarked) [TTX, Tetrodotoxin], the “blockade, % of animals” value (sciatic nerve [1]) was 100%, the “nerve blockade, % of animals” value (sciatic nerve [1]) was 100% and the “successful block, % of animals” value (sciatic nerve [1]) was 100%. For the same compound, the “Median inflammation score (range), Day 4” value [2] was 0.5(0-1), the “Median inflammation score (range), Day 14” value [2] was 0(0-0) and the “Median myotoxicity score (range), Day 4” value [2] was 0(0-0). For the same compound, the “Median myotoxicity score (range), Day 14” value [2] was 0.5(0-1)^ and the “myotoxicity and inflammation, microscopic examination” value [2] was “did not reveal significant myotoxicity and inflammation”.

For `COc1cc(CNC(=O)CCCC/C=C/C(C)C)ccc1O` [capsaicin, 8-Methyl-N-vanillyl-trans-6-nonenamide], the solubility ([3]; alcohol, fats and oils) is given as “freely soluble”, the solubility ([3]; cold water) is given as “insoluble” and the pharmacokinetic half-life [4] is given as “approximately 24 hours”. The “minimum effective dose to produce nerve blockade” value (rat sciatic nerve) was “approximately 50 μg”.

For `O=C1OC2(c3ccc(O)cc3Oc3cc(O)ccc32)c2ccccc21` [fluorescein sodium], the “fluorescence in the nerve” value (sciatic nerve [5]; 0.25 mg in 0.5 mL of PBS, 1 and 4 hours) was “No fluorescence was observed in the nerve”, the “fluorescence in the nerve” value (sciatic nerve [5]; 0.25 mg in 0.5 mL of PEG200, four hours after injection) was “none” and the “fluorescence in the nerve” value (sciatic nerve [5]; 0.25 mg in 0.5 mL of PEG200, one hour after injection) was “fluorescence was observed throughout the nerve”.

With poly(glycerol sebacate) [TgD8] the “Contralateral block (%)” value (rat) was 0% and the “Mortality (%)” value (rat) was 0%.
